Source: US20160120832A1, “LIPID SCAVENGING IN RAS CANCERS” (MEMORIAL SLOAN KETTERING CANCER CENTER, priority 2013, published 2016)
Entries after “also recorded” stand apart in the source; their conditions may differ.

Legend:
iBMK-H-Ras^V12G cells [1] = experiment: Packed cell volume with SCD1 inhibitor plus supplemented lipids; type: cell-based, mouse; conditions: 200 nM SCDi (CAY10566), 20 μM lipid, 72 h
From the text: (§1) Cell lines were from ATCC with the following exceptions: the immortalized Baby Mouse Kidney (iBMK) cell lines were derived from primary kidney epithelial cells from Bax^−/−/Bak^−/− mice, immortalized by E1A and dominant-negative p53 expression, and transfected with control vector, human oncogenic H-Ras^V12G, or myrAKT (31); and the Human Pancreatic Nestin Expressing (HPNE) cells (a generous gift of A. Maitra) were developed from human pancreatic duct by transduction with a retroviral expression vector (pBABEpuro) containing the hTERT gene and transfected with control vector or human oncogenic K-Ras^G12D. Cell lines were routinely passaged in Dulbecco's Modified Eagle Medium (DMEM, Mediatech) with 25 mM glucose and 4 mM glutamine and supplemented with 10% Fetal Bovine Serum (HyClone), 25 IU/ml penicillin, and 25 μg/ml streptomycin (MP Biomedicals) and split at 80% confluence. Metabolic experiments were performed in 6 cm culture dishes with 3 ml of DMEM containing 10% dialyzed serum (DFBS, HyClone). For isotope labeling, glucose and glutamine were replaced with their U-^13C-labeled forms (Cambridge Isotope Labs). Hypoxia experiments were performed in a hypoxic glove box (0.5% or 1% O2 as indicated, 5% CO2 and 94-94.5% N2, 37° C.) (Coy Laboratory Products). Cells and media were equilibrated in low oxygen overnight before experiment initiation. CAY10566 was from Cayman Chemical. Lipid supplements were from Avanti Polar Lipids. LPC(18:1) and LPC(18:0) were dissolved in phosphate buffered saline (PBS); MG(18:1) in methanol; and PC(16:0-18:1) in 1:9 chloroform:methanol. Organic solvents were <0.1% v/v in the medium.
(§2) Cell proliferation was determined with either Packed Cell Volume tubes (PCV, Techno Plastic Products AG) or with the xCELLigence system (Roche). Animal studies were performed following the guidelines for proper and humane use of animals in research under an IACUC-approved protocol. […] Xenograft tumors were measured biweekly and tumor volume calculated as volume=(length×width^2×π/6).

iBMK cells = experiment: Lipid composition and C18:1 import after LPC(18:1) supplementation; type: cell-based, mouse; conditions: 20 μM LPC(18:1)
From the text: as §1, with “Lipid supplements were from Avanti Polar Lipids. LPC(18:1) and LPC(18:0) were dissolved in phosphate buffered saline (PBS); MG(18:1) in methanol; and PC(16:0-18:1) in 1:9 chloroform:methanol. Organic solvents were <0.1% v/v in the medium.” left out

A549 cells = experiment: Packed cell volume with SCD1 inhibitor plus supplemented lipids; type: cell-based, human; conditions: 200 nM SCDi (CAY10566), 20 μM lipid, 72 h
From the text: as §1, with “Hypoxia experiments were performed in a hypoxic glove box (0.5% or 1% O2 as indicated, 5% CO2 and 94-94.5% N2, 37° C.) (Coy Laboratory Products). Cells and media were equilibrated in low oxygen overnight before experiment initiation. CAY10566 was from Cayman Chemical. Lipid supplements were from Avanti Polar Lipids. LPC(18:1) and LPC(18:0) were dissolved in phosphate buffered saline (PBS); MG(18:1) in methanol; and PC(16:0-18:1) in 1:9 chloroform:methanol. Organic solvents were <0.1% v/v in the medium.” left out
(§3) Cell proliferation was determined with either Packed Cell Volume tubes (PCV, Techno Plastic Products AG) or with the xCELLigence system (Roche). […] Xenograft tumors were measured biweekly and tumor volume calculated as volume=(length×width^2×π/6).

cells = experiment: Rescue of cells from SCD1 inhibition (discussion summary); type: cell-based; conditions: cell line not stated
iBMK-myrAkt cells [2] = experiment: Packed cell volume with SCD1 inhibitor plus supplemented lipids; type: cell-based, mouse; conditions: 200 nM SCDi (CAY10566), 20 μM lipid, 72 h
From the text: as §1, §2

SCD1 [3] = target: T1, SCD1 (Homo sapiens, UniProt O00767); experiment: C18:1 labeling from U-13C-glucose and U-13C-glutamine under SCD1 inhibition, A549 cells; type: cell-based; conditions: 200 nM CAY10566, A549 cells
T1 construct: endogenous in cells; host or cells: A549 lung cancer cells (ATCC)
T1 sequence (O00767 1-359): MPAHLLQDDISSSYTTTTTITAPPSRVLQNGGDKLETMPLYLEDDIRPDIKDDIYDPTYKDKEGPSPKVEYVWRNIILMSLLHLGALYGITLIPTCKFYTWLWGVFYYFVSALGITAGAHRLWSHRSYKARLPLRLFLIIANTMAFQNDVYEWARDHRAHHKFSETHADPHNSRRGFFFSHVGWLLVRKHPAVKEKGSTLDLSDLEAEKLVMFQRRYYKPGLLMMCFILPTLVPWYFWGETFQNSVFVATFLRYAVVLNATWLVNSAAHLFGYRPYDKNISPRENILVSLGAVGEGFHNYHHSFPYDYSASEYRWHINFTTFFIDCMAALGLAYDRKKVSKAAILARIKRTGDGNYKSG
From the text: as §1, with “Lipid supplements were from Avanti Polar Lipids. LPC(18:1) and LPC(18:0) were dissolved in phosphate buffered saline (PBS); MG(18:1) in methanol; and PC(16:0-18:1) in 1:9 chloroform:methanol. Organic solvents were <0.1% v/v in the medium.” left out

SCD1 [4] = target: T2, SCD1 (Mus musculus, UniProt P13516); experiment: C18:1 labeling from U-13C-glucose and U-13C-glutamine under SCD1 inhibition, iBMK cells; type: cell-based; conditions: 200 nM CAY10566, iBMK-H-Ras^V12G and iBMK-myrAkt cells, 48 h
T2 construct: endogenous in cells; host or cells: iBMK cells transfected with human H-Ras V12G or myrAkt (SCD1 itself not transfected)
T2 sequence (P13516 1-355): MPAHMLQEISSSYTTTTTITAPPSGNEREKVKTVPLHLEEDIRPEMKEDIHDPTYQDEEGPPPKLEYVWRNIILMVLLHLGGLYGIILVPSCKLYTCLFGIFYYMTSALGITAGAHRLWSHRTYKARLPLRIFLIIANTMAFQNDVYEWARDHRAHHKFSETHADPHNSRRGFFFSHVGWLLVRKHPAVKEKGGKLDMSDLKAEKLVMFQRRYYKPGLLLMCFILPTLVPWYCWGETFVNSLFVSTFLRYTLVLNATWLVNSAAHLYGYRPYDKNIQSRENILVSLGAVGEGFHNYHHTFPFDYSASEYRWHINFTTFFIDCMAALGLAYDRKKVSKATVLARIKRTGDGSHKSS
From the text: as §1, with “Lipid supplements were from Avanti Polar Lipids. LPC(18:1) and LPC(18:0) were dissolved in phosphate buffered saline (PBS); MG(18:1) in methanol; and PC(16:0-18:1) in 1:9 chloroform:methanol. Organic solvents were <0.1% v/v in the medium.” left out

iBMK-H-Ras^V12G tumors = experiment: Allograft tumor growth in athymic nude mice; type: in vivo, mouse; conditions: Ras-driven tumors, 2.5 mg/kg CAY10566 p.o. BID, day 13 or 14 post therapy
Description: (§4) Cell proliferation was determined with either Packed Cell Volume tubes (PCV, Techno Plastic Products AG) or with the xCELLigence system (Roche). Animal studies were performed following the guidelines for proper and humane use of animals in research under an IACUC-approved protocol. To generate allografts, 1×10^7 iBMK cells were implanted in matrigel (BD Biosciences) into nu/nu athymic female mice. After establishment of palpable tumors, mice were randomized to receive 2.5 mg/kg BID CAY10566 p.o. in 0.5% methylcellulose or vehicle control. Xenograft tumors were measured biweekly and tumor volume calculated as volume=(length×width^2×π/6).

iBMK-myrAkt tumors = experiment: Allograft tumor growth in athymic nude mice; type: in vivo, mouse; conditions: Akt-driven tumors, 2.5 mg/kg CAY10566 p.o. BID, day 13 or 14 post therapy
Description: as §4

A549 lung cancer cells = experiment: Cell growth with SCD1 inhibitor (xCELLigence real-time proliferation / culture dishes); type: cell-based, human
From the text: as §1, §2

iBMK-H-Ras^V12G cells [5] = experiment: Cell growth with SCD1 inhibitor; type: cell-based, mouse; conditions: 10% serum, for 3 population doublings
From the text: as §1, with “Hypoxia experiments were performed in a hypoxic glove box (0.5% or 1% O2 as indicated, 5% CO2 and 94-94.5% N2, 37° C.) (Coy Laboratory Products). Cells and media were equilibrated in low oxygen overnight before experiment initiation. CAY10566 was from Cayman Chemical. Lipid supplements were from Avanti Polar Lipids. LPC(18:1) and LPC(18:0) were dissolved in phosphate buffered saline (PBS); MG(18:1) in methanol; and PC(16:0-18:1) in 1:9 chloroform:methanol. Organic solvents were <0.1% v/v in the medium.” left out
as §3

iBMK-myrAkt cells [6] = experiment: Cell growth with SCD1 inhibitor; type: cell-based, mouse; conditions: 10% serum
From the text: as §1, with “Hypoxia experiments were performed in a hypoxic glove box (0.5% or 1% O2 as indicated, 5% CO2 and 94-94.5% N2, 37° C.) (Coy Laboratory Products). Cells and media were equilibrated in low oxygen overnight before experiment initiation. CAY10566 was from Cayman Chemical. Lipid supplements were from Avanti Polar Lipids. LPC(18:1) and LPC(18:0) were dissolved in phosphate buffered saline (PBS); MG(18:1) in methanol; and PC(16:0-18:1) in 1:9 chloroform:methanol. Organic solvents were <0.1% v/v in the medium.” left out
as §3

oleolyl-monoacylglycerol [MG(18:1)]
proliferation / cell growth during SCD1 inhibition with supplemented lipid (iBMK-H-Ras^V12G cells [1]): restored cell proliferation

CCCCCCCC/C=C\CCCCCCCC(=O)OC[C@@H](O)COP(=O)([O-])OCC[N+](C)(C)C [LPC(18:1), oleoyl lysophosphatidylcholine]
desaturation index (C18:1/C18:0) (iBMK cells; 72 h, iBMK-H-Ras^V12G cells): increased significantly and selectively
fraction of C18:1 derived from import (iBMK cells; both iBMK-H-Ras^V12G and iBMK-myrAkt cells): increasing
proliferation during SCD1 inhibition with supplemented lipid (A549 cells): complete rescue
rescue of cells from SCD1 inhibition (cells): rescues cells from SCD1 inhibition
proliferation / cell growth during SCD1 inhibition with supplemented lipid (iBMK-H-Ras^V12G cells [1]): fully restored proliferation
proliferation during SCD1 inhibition with supplemented lipid (iBMK-myrAkt cells [2]): only partially

Cc1nnc(-c2ccc(N3CCC(Oc4cc(F)ccc4Cl)CC3)nn2)o1 [CAY10566]
C18:1 labeling from U-13C-glucose and U-13C-glutamine (SCD1 [3]): completely blocked; also recorded: blocks C18:1 labeling
C18:1 labeling / SCD1 block (SCD1 [4]): fully blocked; also recorded: sufficient to fully block C18:1 labeling
mean tumor volume relative to untreated tumors (iBMK-H-Ras^V12G tumors): 0.67+/−0.05
mean tumor volume relative to untreated tumors (iBMK-myrAkt tumors): 0.51+/−0.04
cell growth in real-time cell proliferation assay (A549 lung cancer cells; 200 nM CAY10566, 10% serum): did not impair cell growth
cell growth in standard cell culture conditions (A549 lung cancer cells; 200 nM CAY10566, first 48 h of growth): did not impair cell growth
cell growth, sensitivity to SCD1 inhibition (A549 lung cancer cells; SCD1 inhibitor, 2% serum): sensitive
cell growth (iBMK-H-Ras^V12G cells [5]): grew almost normally
cell growth (iBMK-myrAkt cells [6]): severely impaired
